Experimental data: ChEMBL document CHEMBL4842365, “Exploring the dNTP -binding site of HIV-1 reverse transcriptase for inhibitor design” (Eur J Med Chem, 2021)
Activity calls are given as the source filed them. The calls are words filed in the database; no cut-off is given here.

What was measured:
Conditions in all cases: time 25-30 min
[1] = target: Human immunodeficiency virus type 1 reverse transcriptase (Human immunodeficiency virus 1) (UniProt Q72547); experiment: Inhibition of HIV-1 reverse transcriptase using 5'-Cy5CAGGAAACAGCTATGAC/3'-GTCCTTTGTCGATACTGTTTTTTT-5' as primer/template at 10 mM preincubated for 20 min followed by dATP addition measured after 5 to 10 mins by gel electrophoresis analysis
[2] = target: Human immunodeficiency virus type 1 reverse transcriptase (Human immunodeficiency virus 1) (UniProt Q72547); experiment: Inhibition of HIV-1 reverse transcriptase using 5'-Cy5CAGGAAACAGCTATGAC/3'-GTCCTTTGTCGATACTGTTTTTTT-5' as primer/template at 5 mM preincubated for 20 min followed by dATP addition measured after 5 to 10 mins by gel electrophoresis analysis
[3] = target: Human immunodeficiency virus type 1 reverse transcriptase (Human immunodeficiency virus 1) (UniProt Q72547); experiment: Inhibition of HIV-1 reverse transcriptase using 5'-Cy5CAGGAAACAGCTATGAC/3'-GTCCTTTGTCGATACTGTTTTTTT-5' as primer/template at 1 mM preincubated for 20 min followed by dATP addition measured after 5 to 10 mins by gel electrophoresis analysis

Compound: Nc1ncnc2c1ncn2CCN[C@@H](CO)C(=O)NP(=O)(O)O
- inhibition [1]: Active
- inhibition [2]: Active
- inhibition [3]: inactive

Compound: Nc1ncnc2c1ncn2CCCOC(CP(=O)(O)O)C(=O)O (centres undefined)
- inhibition [1]: Active
- inhibition [2]: Active
- inhibition [3]: inactive

Compound: C[C@H](Cn1cnc2c(N)ncnc21)N(CCP(=O)(O)O)CC(=O)O
- inhibition [1]: Active
- inhibition [2]: Active
- inhibition [3]: inactive

Compound: Nc1ncnc2c1ncn2CCCN[C@H](CP(=O)(O)O)C(=O)O
- inhibition [1]: Active
- inhibition [2]: Active
- inhibition [3]: inactive

Compound: Nc1ncnc2c1ncn2CCOC(CP(=O)(O)O)C(=O)O (racemic)
- inhibition [1]: Active
- inhibition [2]: Active
- inhibition [3]: inactive

Compound: Nc1ncnc2c1ncn2CCN[C@@H](CP(=O)(O)O)C(=O)O
- inhibition [1]: inactive
- inhibition [3]: inactive

Compound: Nc1ncnc2c1ncn2CCN[C@H](CP(=O)(O)O)C(=O)O
- inhibition [1]: inactive
- inhibition [3]: inactive
